Laboratory results taken from patent US9475784B2, “4,6-diarylaminothiazines as BACE1 inhibitors and their use for the reduction of beta-amyloid production” (BRISTOL-MYERS SQUIBB COMPANY, priority 2012, dated 2016).
Counter-ions that a name gives are not always drawn.

Each compound was assayed on Aβ42 production in H4 cells stably transfected with APP751 containing the Swedish mutation (H4 APP751 SWE clone 8.20) (assay: Cellular assay for inhibition of Aβ1-42 production (H4 APP751 SWE clone 8.20)). Conditions: H4 APP751 SWE clone 8.20 cells, 19 h incubation; Table 5A, 6-alkyl and 6-substituted phenyl thiazine examples.
Format: cell-based
Description: Cellular Assays for Inhibition of Aβ1-40 and Aβ1-42 Production
H4 cells stably transfected with APP751 containing the Swedish mutation (H4 APP751 SWE clone 8.20, developed at BMS) were maintained in log phase through twice weekly passage at a 1:20 split. […] Following incubation for 19 h in 5% CO2 at 37° C., plates were briefly centrifuged (1000 rpm, 5 min). A 10 μl aliquot from each well was transferred to a second assay plate (Costar 3709) for Aβ40 measurements. Antibody cocktails were freshly prepared by dilution into 40 mM Tris-HCl (pH 7.4) with 0.2% BSA and added to assay plates. For Aβ42 measurements, antibodies specific for the Aβ42 neoepitope (565, developed at BMS; conjugated to the Wallac reagent (Perkin Elmer)) and the N-terminal sequence of Aβ peptide (26D6, developed at SIBIA; conjugated to APC (Perkin Elmer)) were mixed and 20 μl of the mixture was added to each well of the incubated cell plate yielding a final concentration of 0.8 ng/well 565 and 75 ng/well 26D6. For the Aβ40 measurements, antibodies specific for the Aβ40 neoepitope (TSD, developed at BMS; conjugated to the Wallac reagent (Perkin Elmer)) and 26D6 as described above were mixed and 20 μl of the mixture was added to the 10 μl aliquots which had been removed previously from the cell plate yielding a final concentration of 1.6 ng/well TSD and 17.5 ng/well 26D6. Assay plates containing antibodies were sealed with aluminum foil and incubated overnight at 4° C. Signal was determined using a Viewlux counter (Perkin Elmer) and IC50 values determined using curve fitting in CurveMaster (Excel Fit based).

In order of falling IC50:
1. C=CCC[C@@H]1C[C@@H](c2cccc(-c3cncnc3)c2)N=C(N)S1 (racemic) [Example 6, (±)-6-(but-3-enyl)-4-(3-(pyrimidin-5-yl)phenyl)-5,6-dihydro-4H-1,3-thiazin-2-amine]  14 µM
2. NC1=N[C@H](c2cccc(-c3cncnc3)c2)C[C@@H](c2ccc(OC(F)(F)F)cc2)S1 (racemic) [Example 9, (±)-4-(3-(pyrimidin-5-yl)phenyl)-6-(4-(trifluoromethoxy)phenyl)-5,6-dihydro-4H-1,3-thiazin-2-amine]  8.9 µM
3. COc1ccc([C@@H]2C[C@@H](c3cccc(-c4cccc(C#N)c4)c3)N=C(N)S2)cc1OC (racemic) [Example 31, 3′-((±)-2-amino-6-(3,4-dimethoxyphenyl)-5,6-dihydro-4H-1,3-thiazin-4-yl)biphenyl-3-carbonitrile]  8.9 µM
4. COc1ccc([C@@H]2C[C@@H](c3cc(-c4cncnc4)cs3)N=C(N)S2)cc1OC (racemic) [Example 30, (±)-6-(3,4-dimethoxyphenyl)-4-(4-(pyrimidin-5-yl)thiophen-2-yl)-5,6-dihydro-4H-1,3-thiazin-2-amine]  8 µM
5. NC1=N[C@H](c2cccc(-c3cncnc3)c2)C[C@@H](Cc2ccccc2)S1 (racemic) [Example 4, (±)-6-benzyl-4-(3-(pyrimidin-5-yl)phenyl)-5,6-dihydro-4H-1,3-thiazin-2-amine]  7.4 µM
6. NC1=N[C@H](c2cccc(-c3cncnc3)c2)C[C@@H](c2ccccc2)S1 (racemic) [Example 2, (±)-6-phenyl-4-(3-(pyrimidin-5-yl)phenyl)-5,6-dihydro-4H-1,3-thiazin-2-amine]  4.1 µM
7. COc1ccc([C@@H]2C[C@@H](c3cccc(-c4cncnc4)c3)N=C(N)S2)cc1 (racemic) [Example 13, (±)-6-(4-methoxyphenyl)-4-(3-(pyrimidin-5-yl)phenyl)-5,6-dihydro-4H-1,3-thiazin-2-amine]  3.7 µM
8. COc1ccc([C@]23CCCCC2[C@@H](c2cccc(-c4cncnc4)c2)N=C(N)S3)cc1 (mixture of isomers) [Example 17, (±)-8a-(4-methoxyphenyl)-4-(3-(pyrimidin-5-yl)phenyl)-4a,5,6,7,8,8a-hexahydro-4H-benzo[e][1,3]thiazin-2-amine•TFA]  3.3 µM
9. COc1ccc([C@@H]2C[C@@H](c3cc(-c4cncnc4)c(F)cc3F)N=C(N)S2)cc1OC (single isomer, unassigned) [Example 1A]  0.29 µM

Same assay, conditions: H4 APP751 SWE clone 8.20 cells, 19 h incubation; Table 5B, 6-heterocyclic thiazine examples

In order of rising IC50:
1. Cc1noc(C)c1[C@@H]1C[C@@H](c2cc(NC(=O)c3ccc(Cl)cn3)ccc2F)N=C(N)S1 (single isomer, unassigned) [Example 38A]  0.005 µM
2. Cc1noc(C)c1[C@@H]1C[C@@H](c2cc(NC(=O)c3ccc(Br)cn3)ccc2F)N=C(N)S1 (racemic) [Example 37, N-(3-((±)-2-amino-6-(3,5-dimethylisoxazol-4-yl)-5,6-dihydro-4H-1,3-thiazin-4-yl)-4-fluorophenyl)-5-bromopicolinamide]  0.022 µM
3. CC#Cc1cncc(-c2cc(Cl)c([C@]3(C)C[C@@H](c4c(C)noc4C)SC(N)=N3)s2)c1 [Example 44, (4S,6S)-4-(3-chloro-5-(5-(prop-1-ynyl)pyridin-3-yl)thiophen-2-yl)-6-(3,5-dimethylisoxazol-4-yl)-4-methyl-5,6-dihydro-4H-1,3-thiazin-2-amine]  0.03 µM
4. CC#Cc1cncc(-c2csc([C@@H]3C[C@@H](c4c(C)noc4C)SC(N)=N3)c2)c1 (racemic) [Example 36, (±)-6-(3,5-dimethylisoxazol-4-yl)-4-(4-(5-(prop-1-ynyl)pyridin-3-yl)thiophen-2-yl)-5,6-dihydro-4H-1,3-thiazin-2-amine]  0.06 µM
5. Cc1nc(C)c([C@@H]2C[C@@](C)(c3cc(-c4cncnc4)c(F)cc3F)N=C(N)S2)o1 [Example 42, (4S,6S)-4-(2,4-difluoro-5-(pyrimidin-5-yl)phenyl)-6-(2,4-dimethyloxazol-5-yl)-4-methyl-5,6-dihydro-4H-1,3-thiazin-2-amine]  0.108 µM
6. Cc1noc(CC(C)(C)O)c1[C@@H]1C[C@@](C)(c2ccc(F)cc2F)N=C(N)S1 [Example 48, 1-(4-((4S,6S)-2-amino-4-(2,4-difluorophenyl)-4-methyl-5,6-dihydro-4H-1,3-thiazin-6-yl)-3-methylisoxazol-5-yl)-2-methylpropan-2-ol]  0.11 µM
7. COc1ncc(-c2cc([C@]3(C)C[C@@H](c4c(C)noc4C)SC(N)=N3)c(F)cc2F)cn1 [Example 58, (4S,6S)-4-(2,4-difluoro-5-(2-methoxypyrimidin-5-yl)phenyl)-6-(3,5-dimethylisoxazol-4-yl)-4-methyl-5,6-dihydro-4H-1,3-thiazin-2-amine]  0.12 µM
8. Cc1oncc1[C@]1(C)C[C@@H](c2cc(-c3cncnc3)c(F)cc2F)N=C(N)S1 (racemic) [Example 33, (±)-4-(2,4-difluoro-5-(pyrimidin-5-yl)phenyl)-6-methyl-6-(5-methylisoxazol-4-yl)-5,6-dihydro-4H-1,3-thiazin-2-amine]  0.18 µM
9. Cc1noc(C)c1[C@@H]1C[C@@H](c2cc(-c3cncnc3)c(F)cc2F)N=C(N)S1 (racemic) [Example 29, (±)-4-(2,4-difluoro-5-(pyrimidin-5-yl)phenyl)-6-(3,5-dimethylisoxazol-4-yl)-5,6-dihydro-4H-1,3-thiazin-2-amine]  0.2 µM
10. Cc1noc(C)c1[C@@H]1C[C@@](C)(c2cc(-c3cnc(F)nc3)c(F)cc2F)N=C(N)S1 [Example 46, (4S,6S)-4-(2,4-difluoro-5-(2-fluoropyrimidin-5-yl)phenyl)-6-(3,5-dimethylisoxazol-4-yl)-4-methyl-5,6-dihydro-4H-1,3-thiazin-2-amine]  0.39 µM
11. Cc1noc(C)c1[C@@H]1C[C@@](C)(c2cc(-c3cnccc3C(F)(F)F)c(F)cc2F)N=C(N)S1 [Example 59, (4S,6S)-4-(2,4-difluoro-5-(4-(trifluoromethyl)pyridin-3-yl)phenyl)-6-(3,5-dimethylisoxazol-4-yl)-4-methyl-5,6-dihydro-4H-1,3-thiazin-2-amine]  0.67 µM
12. Cc1noc(C)c1[C@@H]1C[C@@](C)(c2cc(-c3cnc(S(C)(=O)=O)nc3)c(F)cc2F)N=C(N)S1 [Example 52, (4S,6S)-4-(2,4-difluoro-5-(2-(methylsulfonyl)pyrimidin-5-yl)phenyl)-6-(3,5-dimethylisoxazol-4-yl)-4-methyl-5,6-dihydro-4H-1,3-thiazin-2-amine]  0.82 µM
13. CC[C@@]1(c2ccc(F)cc2F)C[C@@H](c2c(C)noc2C)SC(N)=N1 [Example 51, (4S,6S)-4-(2,4-difluorophenyl)-6-(3,5-dimethylisoxazol-4-yl)-4-ethyl-5,6-dihydro-4H-1,3-thiazin-2-amine]  1.3 µM
14. COc1ccc([C@@H]2C[C@@H](c3cccc(-c4cncnc4)c3)N=C(N)S2)cn1 [Example 10, (4S,6S)-6-(6-methoxypyridin-3-yl)-4-(3-(pyrimidin-5-yl)phenyl)-5,6-dihydro-4H-1,3-thiazin-2-amine•TFA]  2.1 µM
15. NC1=N[C@H](c2cccc(-c3cncnc3)c2)C[C@@H](c2cnccn2)S1 (racemic) [Example 23, (±)-6-(pyrazin-2-yl)-4-(3-(pyrimidin-5-yl)phenyl)-5,6-dihydro-4H-1,3-thiazin-2-amine•TFA]  2.4 µM
16. Cn1cc([C@@H]2C[C@@H](c3cccc(-c4cncnc4)c3)N=C(N)S2)cn1 (racemic) [Example 27, (±)-6-(1-methyl-1H-pyrazol-4-yl)-4-(3-(pyrimidin-5-yl)phenyl)-5,6-dihydro-4H-1,3-thiazin-2-amine•TFA]  2.6 µM
